Laboratory results reported in ChEMBL document CHEMBL5244277, “A review upon medicinal perspective and designing rationale of DPP-4 inhibitors” (Bioorg Med Chem, 2021).
Each block holds one compound with its values, some of them ahead of it.

Tests used:
Mus musculus [1] = assay: Hypoglycemic activity in C57BL/6J mouse assessed as reduction in blood glucose level at 20 mg/kg, iv measured for 180 mins; type: ADME, organism-based; set-up: scale not given: the % may be the effect or the level left; settings: in vivo, 3 h
Mus musculus [2] = assay: Hypoglycemic activity in C57BL/6J mouse assessed as reduction in blood glucose level at 5 mg/kg, iv measured for 180 mins; type: ADME, organism-based; set-up: scale not given: the % may be the effect or the level left; settings: in vivo, 3 h
Mus musculus [3] = assay: Hypoglycemic activity in C57BL/6J mouse assessed as reduction in blood glucose level at 10 mg/kg, iv measured for 180 mins; type: ADME, organism-based; set-up: scale not given: the % may be the effect or the level left; settings: in vivo, 3 h
Dipeptidyl peptidase 4 [4] = target: T1, Dipeptidyl peptidase 4 (Homo sapiens, UniProt P27487)
Target sequence in this assay (P27487 whole entry): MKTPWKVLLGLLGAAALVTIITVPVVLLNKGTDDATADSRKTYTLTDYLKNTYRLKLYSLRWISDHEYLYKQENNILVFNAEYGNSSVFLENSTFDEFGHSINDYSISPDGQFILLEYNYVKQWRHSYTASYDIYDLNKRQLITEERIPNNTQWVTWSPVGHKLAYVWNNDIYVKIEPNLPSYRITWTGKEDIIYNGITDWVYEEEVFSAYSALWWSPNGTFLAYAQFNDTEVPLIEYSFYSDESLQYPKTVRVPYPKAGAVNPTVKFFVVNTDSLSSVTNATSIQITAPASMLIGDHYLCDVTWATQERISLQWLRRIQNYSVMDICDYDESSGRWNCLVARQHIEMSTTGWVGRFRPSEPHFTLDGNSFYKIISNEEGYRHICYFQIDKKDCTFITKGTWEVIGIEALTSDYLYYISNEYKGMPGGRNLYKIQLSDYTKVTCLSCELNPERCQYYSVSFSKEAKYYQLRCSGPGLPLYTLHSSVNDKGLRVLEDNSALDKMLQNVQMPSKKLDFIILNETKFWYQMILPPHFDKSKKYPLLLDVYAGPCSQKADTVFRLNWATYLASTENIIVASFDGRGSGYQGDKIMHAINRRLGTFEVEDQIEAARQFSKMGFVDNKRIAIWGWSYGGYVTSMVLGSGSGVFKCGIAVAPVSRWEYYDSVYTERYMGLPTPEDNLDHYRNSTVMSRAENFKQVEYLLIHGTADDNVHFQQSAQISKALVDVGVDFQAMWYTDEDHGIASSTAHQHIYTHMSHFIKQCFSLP

Homo sapiens [5] = species: Homo sapiens; assay: Selectivity index, ratio of IC50 for DPP-9 (unknown origin) to IC50 for DPP-4 (unknown origin)
Homo sapiens [6] = species: Homo sapiens; assay: Selectivity index, ratio of IC50 for DPP-8 (unknown origin) to IC50 for DPP-4 (unknown origin)
[7] = Bioavailability in dog; type: ADME, organism-based, Canis lupus familiaris; settings: in vivo
[8] = Bioavailability in rat; type: ADME, organism-based; settings: in vivo
[9] = Bioavailability in monkey; type: ADME, organism-based, Macaca mulatta; settings: rhesus monkey, in vivo
Mus musculus [10] = assay: Hypoglycemic activity in C57BL/6J mouse assessed as reduction in blood glucose level at 3 mg/kg, iv measured for 180 mins; type: ADME, organism-based; set-up: scale not given: the % may be the effect or the level left; settings: in vivo, 3 h
Rattus norvegicus = assay: Antihyperglycemic activity in STZ-induced diabetic rat model assessed as reduction in blood glucose level at 100 mg/kg, po measured upto 24 hrs; type: functional; set-up: scale not given: the % may be the effect or the level left
Mus musculus [11] = assay: Antidiabetic activity in C57BL/6J mouse assessed as decrease in AUC of glucose at 3 mg/kg, po; type: functional; set-up: scale not given: the % may be the effect or the level left
Dipeptidyl peptidase 4 [12] = target: T1, Dipeptidyl peptidase 4; assay: Inhibition of DPP-4 (unknown origin) using (H-Gly-Pro-AMC) as substrate
Target sequence in this assay (P27487 whole entry): as above

[13] = Half life in Sprague-Dawley rat at 3 mg/kg, po; type: ADME, organism-based; settings: in vivo
Homo sapiens [14] = species: Homo sapiens; assay: Selectivity index, ratio of IC50 for human recombinant DPP-4 to IC50 for human recombinant DPP-8
Mus musculus [15] = assay: Hypoglycemic activity in ICR mouse assessed as reduction in blood glucose level at 30 mg/kg measured at 120 mins; type: ADME, organism-based; set-up: scale not given: the % may be the effect or the level left; settings: in vivo, 2 h
Mus musculus [16] = assay: Hypoglycemic activity in ICR mouse assessed as reduction in blood glucose level at 3 mg/kg measured at 120 mins; type: ADME, organism-based; set-up: scale not given: the % may be the effect or the level left; settings: in vivo, 2 h
Dipeptidyl peptidase 4 [17] = target: T1, Dipeptidyl peptidase 4; assay: Inhibition of human recombinant DPP-4 using H-Gly-Pro-aminomethylcoumarin as substrate at 100 uM relative to control
Target sequence in this assay (P27487 whole entry, looked up): as the sequence (P27487 whole entry) above

Homo sapiens [18] = species: Homo sapiens; assay: Selectivity index, ratio of IC50 for human recombinant DPP-4 to IC50 for human recombinant DPP-9
Dipeptidyl peptidase 4 [19] = target: T1, Dipeptidyl peptidase 4; assay: Inhibition of human recombinant DPP-4 using H-Gly-Pro-aminomethylcoumarin as substrate
Target sequence in this assay (P27487 whole entry): as above

Mus musculus [20] = assay: Hypoglycemic activity in KKAy mouse assessed as reduction in blood glucose level at 3 mg/kg; type: ADME, organism-based; set-up: scale not given: the % may be the effect or the level left; settings: in vivo
Mus musculus [21] = assay: Hypoglycemic activity in KKAy mouse assessed as reduction in blood glucose level at 30 mg/kg; type: ADME, organism-based; set-up: scale not given: the % may be the effect or the level left; settings: in vivo
Mus musculus [22] = assay: Hypoglycemic activity in ICR mouse assessed as reduction in blood glucose level at 10 mg/kg; type: ADME, organism-based; set-up: scale not given: the % may be the effect or the level left; settings: in vivo
[23] = Half life in KKAy mouse at 10 to 30 mg/kg; type: ADME, organism-based; settings: in vivo, dose 10-30 mg/kg
[24] = Oral bioavailability in KKAy mouse at 10 to 30 mg/kg; type: ADME, organism-based; settings: in vivo, dose 10-30 mg/kg
Mus musculus [25] = assay: Hypoglycemic activity in ICR mouse assessed as reduction in blood glucose level at 30 mg/kg; type: ADME, organism-based; set-up: scale not given: the % may be the effect or the level left; settings: in vivo
Mus musculus [26] = assay: Hypoglycemic activity in ICR mouse assessed as reduction in blood glucose level at 3 mg/kg; type: ADME, organism-based; set-up: scale not given: the % may be the effect or the level left; settings: in vivo
Mus musculus [27] = assay: Hypoglycemic activity in ICR mouse assessed as reduction in blood glucose level at 1 mg/kg; type: ADME, organism-based; set-up: scale not given: the % may be the effect or the level left; settings: in vivo
Mus musculus [28] = assay: Hypoglycemic activity in KKAy mouse assessed as reduction in blood glucose level at 10 mg/kg; type: ADME, organism-based; set-up: scale not given: the % may be the effect or the level left; settings: in vivo
[29] = Clearance in mouse at 3 to 10 mg/kg, iv; type: ADME, organism-based; settings: in vivo, dose 3-10 mg/kg
Dipeptidyl peptidase 9 = Dipeptidyl peptidase 9 (Homo sapiens, UniProt Q86TI2); assay: Inhibition of human recombinant DPP-9
[30] = Half life in mouse at 3 to 10 mg/kg, iv; type: ADME, organism-based; settings: in vivo, dose 3-10 mg/kg
[31] = Biovailability in mouse at 3 to 10 mg/kg, iv; type: ADME, organism-based; settings: in vivo, dose 3-10 mg/kg
[32] = Metabolic stability in rat liver microsome assessed as parent compound remaining; type: ADME; settings: microsomes
[33] = Metabolic stability in rat plasma assessed as parent compound remaining; type: ADME, cell-free
[34] = Cytotoxicity against human L02 cells assessed as cell viability after 72 hrs by MTT assay; type: toxicity, cell-based; settings: read-out: Activity
Dipeptidyl peptidase 8 = Dipeptidyl peptidase 8 (Homo sapiens, UniProt Q6V1X1); assay: Inhibition of human recombinant DPP-8
Mus musculus [35] = assay: Hypoglycemic activity in mouse assessed as reduction in blood glucose level at 10 mg/kg measured after 120 mins; type: ADME, organism-based; set-up: scale not given: the % may be the effect or the level left; settings: in vivo, 2 h
[36] = Cmax in ICR mouse at 1 to 10 mg/kg, po; type: ADME, organism-based; set-up: route po; settings: in vivo, dose 1-10 mg/kg
[37] = Metabolic stability in human liver microsomes assessed as intrinsic clearance; type: ADME, Microsome; settings: read-out: CLH
[38] = Tmax in ICR mouse at 1 to 10 mg/kg, po; type: ADME, organism-based; settings: in vivo, dose 1-10 mg/kg
[39] = MRT in ICR mouse at 1 to 10 mg/kg, po; type: ADME, organism-based; settings: in vivo, dose 1-10 mg/kg
[40] = Half life in ICR mouse at 1 to 10 mg/kg, po; type: ADME, organism-based; settings: in vivo, dose 1-10 mg/kg
[41] = Aqueous stability in phosphate buffer at pH 7.4 assessed as half life; type: physicochemical

Chain of Dipeptidyl peptidase 8 (Q6V1X1 whole entry): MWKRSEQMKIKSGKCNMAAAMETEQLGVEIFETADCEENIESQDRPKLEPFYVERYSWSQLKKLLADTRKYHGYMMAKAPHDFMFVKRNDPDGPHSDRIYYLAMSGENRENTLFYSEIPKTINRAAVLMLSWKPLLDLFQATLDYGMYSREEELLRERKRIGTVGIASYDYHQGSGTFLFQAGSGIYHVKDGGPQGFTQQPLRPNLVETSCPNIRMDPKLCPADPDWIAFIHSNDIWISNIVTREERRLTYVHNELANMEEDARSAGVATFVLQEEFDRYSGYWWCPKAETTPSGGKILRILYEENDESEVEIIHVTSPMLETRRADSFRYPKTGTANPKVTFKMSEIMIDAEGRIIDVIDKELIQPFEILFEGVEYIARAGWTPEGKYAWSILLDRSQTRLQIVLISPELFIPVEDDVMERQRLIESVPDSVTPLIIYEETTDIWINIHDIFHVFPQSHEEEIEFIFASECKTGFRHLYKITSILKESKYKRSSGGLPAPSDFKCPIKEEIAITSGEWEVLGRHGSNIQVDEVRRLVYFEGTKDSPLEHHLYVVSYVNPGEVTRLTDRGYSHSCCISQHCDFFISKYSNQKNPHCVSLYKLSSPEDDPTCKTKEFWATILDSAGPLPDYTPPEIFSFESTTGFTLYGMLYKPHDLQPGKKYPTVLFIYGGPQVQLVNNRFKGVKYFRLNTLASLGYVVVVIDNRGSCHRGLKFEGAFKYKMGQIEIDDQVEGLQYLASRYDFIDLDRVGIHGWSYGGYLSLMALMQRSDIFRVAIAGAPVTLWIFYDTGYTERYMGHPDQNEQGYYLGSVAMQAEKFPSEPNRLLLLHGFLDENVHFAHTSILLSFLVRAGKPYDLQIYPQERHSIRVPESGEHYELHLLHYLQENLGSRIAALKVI
Chain of Dipeptidyl peptidase 9 (Q86TI2 whole entry): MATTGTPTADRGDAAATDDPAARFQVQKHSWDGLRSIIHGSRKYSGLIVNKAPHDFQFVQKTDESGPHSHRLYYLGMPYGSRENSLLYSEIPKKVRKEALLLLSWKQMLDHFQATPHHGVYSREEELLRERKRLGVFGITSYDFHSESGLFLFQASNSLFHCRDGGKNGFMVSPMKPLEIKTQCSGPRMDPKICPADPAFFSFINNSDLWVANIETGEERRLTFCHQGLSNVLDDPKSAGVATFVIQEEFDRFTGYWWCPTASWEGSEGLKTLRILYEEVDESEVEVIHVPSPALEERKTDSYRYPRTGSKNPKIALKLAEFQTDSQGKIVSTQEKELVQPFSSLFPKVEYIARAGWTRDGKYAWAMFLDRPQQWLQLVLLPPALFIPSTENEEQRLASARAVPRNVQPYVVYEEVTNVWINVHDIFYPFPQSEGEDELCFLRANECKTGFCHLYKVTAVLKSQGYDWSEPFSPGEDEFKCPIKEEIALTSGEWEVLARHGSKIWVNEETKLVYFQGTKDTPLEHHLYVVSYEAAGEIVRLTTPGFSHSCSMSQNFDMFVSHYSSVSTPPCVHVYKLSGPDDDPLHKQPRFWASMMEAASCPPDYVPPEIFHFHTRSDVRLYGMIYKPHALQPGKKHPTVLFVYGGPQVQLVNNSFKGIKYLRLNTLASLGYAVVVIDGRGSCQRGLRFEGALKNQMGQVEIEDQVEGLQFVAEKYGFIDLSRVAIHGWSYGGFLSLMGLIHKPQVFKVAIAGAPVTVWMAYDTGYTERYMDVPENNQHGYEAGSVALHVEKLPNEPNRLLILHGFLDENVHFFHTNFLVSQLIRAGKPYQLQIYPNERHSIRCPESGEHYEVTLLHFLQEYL

Activity (Mus musculus [1]): 47.1%
Activity (Mus musculus [2]): 19.6%
Activity (Mus musculus [3]): 33.6%
IC50 (Dipeptidyl peptidase 4 [4]): 28500 nM
Ratio IC50 (Homo sapiens [5]): 8
Ratio IC50 (Homo sapiens [6]): 8
SMILES: Brc1nc2n(n1)CC(c1cc3ccccc3o1)=NN2

bioavailability [7]: 91%
bioavailability [8]: 57%
bioavailability [9]: 87%
IC50 (Dipeptidyl peptidase 4 [4]): 4.3 nM
SMILES: CC1c2nnc(C(F)(F)F)n2CCN1C(=O)C[C@H](N)Cc1cc(F)c(F)cc1F.Cl (stereo partly specified)

SMILES: N[C@@H](CC(=O)N1CCn2c(nnc2C(F)(F)F)C1)Cc1cc(F)c(F)cc1F [SITAGLIPTIN]
Activity (Mus musculus [10]): 27.8%
Activity (Rattus norvegicus): 31.9%
Activity (Mus musculus [11]): 17.9%

IC50 (Dipeptidyl peptidase 4 [12]): 1.12 nM
SMILES: Cc1ccc2cc(CNc3nc(C)cs3)n(/N=C/c3ccc(O)cc3)c(=O)c2c1

half-life [13]: 0.92 h
SMILES: N#C[C@@H]1C[C@H]2[C@H](CC2(F)F)N1C(=O)[C@@H](N)C12CC3CC(CC(O)(C3)C1)C2

Ratio IC50 (Homo sapiens [14]): 215
Activity (Mus musculus [15]): 33.53%
Activity (Mus musculus [16]): 35%
inhibition (Dipeptidyl peptidase 4 [17]): 75%
Ratio IC50 (Homo sapiens [18]): 192
IC50 (Dipeptidyl peptidase 4 [19]): 130 nM
SMILES: NCc1c(-c2ccc(Cl)cc2Cl)nc2ccccn12

Activity (Mus musculus [20]): 61.9%
Activity (Mus musculus [21]): 52.2%
SMILES: N#C[C@@H]1CCCN1C(=O)CNC1C[C@H]2CC(O)C[C@H]2C1 (stereo partly specified)

Activity (Mus musculus [22]): 29.13%
half-life [23]: 5.4 h
bioavailability [24]: 21.8%
Activity (Mus musculus [25]): 27.57%
Activity (Mus musculus [26]): 27.36%
Activity (Mus musculus [21]): 26.4%
Activity (Mus musculus [27]): 18.75%
Activity (Mus musculus [28]): 19.2%
SMILES: N#C[C@@H]1C[C@H](F)CN1C(=O)[C@@H](N)Cc1ccccc1

clearance [29]: 5.83 mL/min/kg
IC50 (Dipeptidyl peptidase 9): > 100000 nM
half-life [30]: 11.1 h
bioavailability [31]: 27.3%
Stability [32]: 101.83%
Stability [33]: 99.38%
IC50 (Dipeptidyl peptidase 8): > 100000 nM
Activity (Mus musculus [35]): 16.4%
SMILES: CC#CCn1c(N2CCC[C@@H](N)C2)cc(=O)n(Cc2ccc(Cl)c(C(=O)N(C)C)c2)c1=O
viability at 72 h [34]: 100%

Cmax [36]: 719 ng/mL
CLint scaled [37]: < 100 mL/min/kg
Tmax [38]: 2 h
MRT [39]: 2.72 h
half-life [40]: 1.03 h
SMILES: N[C@@H](CCNC(=O)N1CCn2c(nnc2C(F)(F)F)C1)Cc1cc(F)c(F)cc1F

half-life [41]: 168 h
SMILES: CO[C@@H]1CCCN1C(=O)CC(C)(C)[C@H](N)C(=O)N1CCC[C@H]1C#N.O=C(O)C(F)(F)F
